# Experimental data as given in patent publication US11795190B2, “D-glycero-B-D-heptose 1-phosphate (HMP) conjugates and use for targeted immune modulation” (NATIONAL RESEARCH COUNCIL OF CANADA, priority 2017, dated 2023).
# How the values were obtained:
# [1] = test system: human colonic epithelial cells (HCT 116), wild type; test: IL-8 ELISA in wild type HCT 116 cells after digitonin-permeabilised stimulation; assay type: cell-based; details: FIG. 11; WT HCT 116; 10, 30 or 50 μg/mL, digitonin 20 min, IL-8 after 6 hours
# Description: (§1) Wild type (WT) or TIFA knockout (TIFA KO) cells were treated with compounds in the presence of digitonin for 20 min, treatment was removed, cells were washed and then cultured in normal medium without the synthetic compounds for 6 hr before IL-8 levels in culture supernatants were measured by ELISA. (A) Cells were treated with water or 10 μg/mL of the indicated compound. Data are means±standard error mean of technical triplicates. (B) Cells were treated with the NOD1 agonist C12-iE-DAP (39.8 μM) or with two different molar concentrations of compounds (30 μM or 150 μM). Two batches of dd-β-HBP and dd-β-HMP synthesized independently of one another were tested (batch #1 and batch #2) to assess consistency of the chemical synthesis. Data are means±standard error mean of two (150 μM treatment) or three (all other treatments) independent experiments. Nod1 agonist: C12-iE-DAP (20 μg/ml, 39.8 μM); JS-12: D-glycero-D-manno-heptose; JS-2: D-glycero-D-manno-heptose 7-phosphate; JS-7:D-glycero-β-D-manno-heptose-phosphate; JS-8: d-glycero-α-d-manno-heptose-phosphate; JS-9: β-d-mannose phosphate; JS-6:d-glycero-β-d-manno heptose 1,7-biphosphate; JS-5: d-glycero-α-d-manno heptose 1,7-biphosphate.
# (§2) FIG. 11. Stimulation of human colonic epithelial cells by compounds/products according to the invention. Human colonic epithelial cells (HCT 116) that were either wild type (WT) or deficient in TIFA protein expression (knockout, KO) were stimulated for 20 minutes in permeabilization buffer (5 μg/mL digitonin) in the presence of water or 10 μg/mL, 30 μg/mL, or 50 μg/mL of indicated synthetic compounds according to the invention. Treatment was removed, cells were washed, and cells were incubated for 6 hours in complete media before IL-8 levels in culture supernatants was measured by ELISA. The results are the mean±standard error of the mean of three technical replicates. JS-10: 7-O-(Aminoethyl)-D-glycero-β-D-manno-heptopyranose phosphate; JS-11: 7-O-(Aminoethyl) -D-glycero-D-manno-heptopyranose; JS-12: D-glycero-D-manno-heptose; Js-13: pH-Rhodo -7-O-(aminoethyl)-D-glycero-β-D-manno-heptopyranose phosphate.
# FIG. 13. […] Treatment was removed, cells were washed, and cells were incubated for 6 hours in complete media before IL-8 levels in culture supernatants were measured by ELISA. The results are the mean±standard error of the mean of two (150 μM treatment) or three (all other treatments) independent experiments. #=none detected, JS-10: 7-O-(Aminoethyl)-d-glycero-β-d-manno-heptopyranose phosphate; JS-14: Biotin-7-O-(aminoethyl)-d-glycero-β-d-manno-heptopyranose phosphate, Nod1 agonist: C12-iE-DAP (20 μg/ml, 39.8 μM).
# FIG. 16. […] Treatment was removed, cells were washed, and cells were incubated for 6 hours in complete media before IL-8 levels in culture supernatants were measured by ELISA. […]
# [2] = test system: HCT 116 cells deficient in TIFA protein expression (TIFA KO); test: IL-8 ELISA in TIFA knockout HCT 116 cells; assay type: cell-based, human; details: TIFA KO HCT 116
# Description: as §1, §2
# (§3) FIG. 13. Stimulation of human colonic epithelial cells by compounds/products according to the invention. Human colonic epithelial cells (HCT 116) that were either wild type (WT) or deficient in TIFA protein expression (knockout, TIFA KO) were stimulated for 20 minutes in permeabilization buffer (5 μg/mL digitonin) in the presence of water, 20 μg/mL of the Nod1 agonist C12-iE-DAP (39.8 μM, which induces inflammation in a TIFA-independent manner) or 30 μM or 150 μM of synthetic compound according to the invention. Treatment was removed, cells were washed, and cells were incubated for 6 hours in complete media before IL-8 levels in culture supernatants were measured by ELISA. The results are the mean±standard error of the mean of two (150 μM treatment) or three (all other treatments) independent experiments. #=none detected, JS-10: 7-O-(Aminoethyl)-d-glycero-β-d-manno-heptopyranose phosphate; JS-14: Biotin-7-O-(aminoethyl)-d-glycero-β-d-manno-heptopyranose phosphate, Nod1 agonist: C12-iE-DAP (20 μg/ml, 39.8 μM).
# as §3, with “16.” for “13.”, “of” for “of the mean of two (150 μM treatment) or”, “technical replicates. […]” for “(all other treatments) independent experiments. #=none detected, JS-10: 7-O-(Aminoethyl)-d-glycero-β-d-manno-heptopyranose phosphate; JS-14: Biotin-7-O-(aminoethyl)-d-glycero-β-d-manno-heptopyranose phosphate, Nod1 agonist: C12-iE-DAP (20 μg/ml, 39.8 μM).”
# [3] = test system: TIFA knockout (TIFA KO) HEK 293T cells encoding an NF-κB-driven luciferase reporter gene; test: NF-κB-driven luciferase reporter assay in TIFA knockout HEK 293T cells; assay type: cell-based, human; details: TIFA KO cells
# Description: FIGS. 10A-B. Effect of chemically synthesised analogues on human embryonic kidney cells (HEK 293T) encoding an NF-κB-driven luciferase reporter gene. NF-κB luciferase activity was measured in wild type (WT) or TIFA knockout (TIFA KO) cells treated with compounds in the presence of digitonin for 20 min, washed, and then cultured in normal medium without the synthetic compounds for 6 hrs after treatment, before luciferase activity was measured. (A) Cells were treated with 10 μg/mL of the indicated compound. Data are means±standard error mean of technical triplicates. (B) Cells were treated with two different molar concentrations of compound (30 μM or 150 μM). Two batches of DD-β-HBP and DD-β-HMP synthesized independently of one another were tested (batch #1 and batch #2) to assess consistency of the chemical synthesis. Data are means±standard error mean of technical triplicates and are representative of three independent experiments. JS-12: D-glycero-D-manno-heptose; JS-2: D-glycero-D-manno-heptose 7-phosphate; JS-7:D-glycero-β-D-manno-heptose-phosphate; JS-8: D-glycero-α-D-manno-heptose-phosphate; JS-9: β-D-mannose phosphate; JS-6:D-glycero-β-D-manno heptose 1,7-biphosphate; JS-5: D-glycero-α-D-manno heptose 1,7-biphosphate.
# [4] = test system: human macrophage cells (THP-1); test: IL-8 ELISA in THP-1 cells after digitonin-permeabilised stimulation; assay type: cell-based; details: FIG. 15, higher (150 μM) concentrations, digitonin 20 min, IL-8 after 6 hours
# Description: FIG. 15. Stimulation of human macrophages by compounds/products according to the invention. Human macrophage cells (THP-1) were stimulated for 20 minutes in permeabilization buffer (5 μg/mL digitonin) in the presence of water, 39.8 μM of the Nod1 agonist C12-iE-DAP (which stimulates in a TIFA-independent manner), or either 30 μM or 150 μM of synthetic compound according to the invention. Treatment was removed, cells were washed, and cells were incubated for 6 hours in complete media before the IL-8 levels in culture supernatants were measured by ELISA. The results are the mean and standard error of the mean of three technical replicates. Nod1 agonist: C12-iE-DAP (20 μg/ml, 39.8 μM); JS-7: JS-7:D-glycero-β-D-manno-heptose-phosphate; JS-10: 7-O-(Aminoethyl)-D-glycero-β-D-manno-heptopyranose phosphate; JS-14: Biotin-7-O-(aminoethyl)-D-glycero-β-D-manno-heptopyranose phosphate.
smiles,measurement,setting,value
"NCCOC[C@@H](O)C1O[C@@H](OP(=O)([O-])[O-])C(O)[C@@H](O)[C@@H]1O.[Na+].[Na+] (stereo partly drawn) [JS-10a, 7-O-(Aminoethyl)-D-glycero-β-D-manno-heptopyranose phosphate]",inflammatory response (IL-8 in culture supernatant),[1],modest inflammatory response
same,"activity in TIFA KO cells (IL-8), TIFA dependence","[2]; FIG. 11, 10, 30 or 50 μg/mL",relative absence of activity
same,"activity in TIFA KO cells (IL-8), TIFA dependence","[2]; FIG. 13, 30 μM or 150 μM (Nod1 agonist 39.8 μM)",relative absence of activity
same,"activity in TIFA KO cells (NF-κB luciferase), TIFA dependence","[3]; FIG. 12, 10, 30 or 50 μg/mL",relative absence of activity
same,"activity in TIFA KO cells (NF-κB luciferase), TIFA dependence","[3]; FIG. 14, 30 μM or 150 μM",relative absence of activity
same,inflammatory response (IL-8 in culture supernatant),[4],stimulate an inflammatory response
